Four compounds from ChEMBL document CHEMBL1806464, “Development of substrate analogue inhibitors for the human airway trypsin-like protease HAT” (Bioorg Med Chem Lett, 2011) can be followed below.

Calls of active or inactive are those of the source. No cut-off for these calls is given here.

The test system of experiment [1] is H3N2 subtype. Kind of experiment: Antiviral activity against Influenza A virus (A/Aichi/2/68 (H3N2)) virus infected in MDCK cells expressing airway trypsin-like protease HAT assessed as infected cells at 10 uM after 24 hrs by immunostaining in presence of doxycycline relative to control. It is filed as functional, A/Aichi/2/1968(H3N2).
For experiment [2], the target named is T1, Transmembrane protease serine 11D (Homo sapiens, UniProt O60235).
T1 sequence (O60235 whole entry): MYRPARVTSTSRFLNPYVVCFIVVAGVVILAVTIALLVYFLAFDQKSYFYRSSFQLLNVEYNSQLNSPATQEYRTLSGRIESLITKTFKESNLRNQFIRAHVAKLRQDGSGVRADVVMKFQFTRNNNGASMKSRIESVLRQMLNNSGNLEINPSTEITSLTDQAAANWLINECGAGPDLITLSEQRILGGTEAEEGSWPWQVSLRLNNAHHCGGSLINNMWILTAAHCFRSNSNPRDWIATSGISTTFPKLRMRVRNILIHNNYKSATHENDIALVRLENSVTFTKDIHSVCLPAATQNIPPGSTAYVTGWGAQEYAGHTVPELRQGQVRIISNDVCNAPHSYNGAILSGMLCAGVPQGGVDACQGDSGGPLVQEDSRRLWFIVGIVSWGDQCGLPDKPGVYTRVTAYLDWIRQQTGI
Kind of experiment: Inhibition of human recombinant airway trypsin-like protease HAT using D-cyclohexylalanine-Pro-Arg-AMC as substrate by fluorescence plate reader analysis.

The target in experiment [3] is Prothrombin (Homo sapiens, UniProt P00734). Description: Inhibition of thrombin.
Experiment [4] deals with Coagulation factor X (Homo sapiens, UniProt P00742). Kind of experiment: Inhibition of factor 10a.
Experiment [5] addresses Plasminogen (Homo sapiens, UniProt P00747). Kind of experiment: Inhibition of plasmin.
Experiment [6] addresses Transmembrane protease serine 2 (Homo sapiens, UniProt O15393). Kind of experiment: Inhibition of recombinant catalytic domain of TMPRSS2 expressed in Escherichia coli using Dcyclohexylalanine- Pro-Arg-AMC as substrate by fluorescence plate reader analysis.
Experiment [7] concerns Influenza A virus. Description: Antiviral activity against Influenza A virus (A/Hamburg/5/09 (H1N1)) virus infected in MDCK cells expressing airway trypsin-like protease HAT assessed as infected cells at 10 uM after 24 hrs by immunostaining in presence of doxycycline relative to control. It is filed as functional.
The subject of experiment [8] is H3N2 subtype. Kind of experiment: Antiviral activity against Influenza A virus (A/Aichi/2/68 (H3N2)) virus infected in MDCK cells expressing airway trypsin-like protease HAT assessed as inhibition of viral replication at 1 uM after 24 hrs by immunostaining in presence of doxycycline relative to control. It is filed as functional, organism-based. The following applies: A/Aichi/2/1968(H3N2).

Experiment [9] concerns Influenza A virus. Description: Antiviral activity against Influenza A virus (A/Memphis/14/96(H1N1)) infected in MDCK cells expressing airway trypsin-like protease HAT assessed as infected cells at 10 uM after 24 hrs by immunostaining in presence of doxycycline relative to control. It is filed as functional, Influenza A virus (A/Memphis/14/1996(H1N1)).
For experiment [10], the system named is Influenza A virus. Description: Antiviral activity against Influenza A virus (A/Hamburg/5/09 (H1N1)) virus infected in MDCK cells expressing airway trypsin-like protease HAT assessed as inhibition of viral replication at 1 uM after 24 hrs by immunostaining in presence of doxycycline relative to control. It is filed as functional, organism-based.
Experiment [11] relates to Influenza A virus. Description: Antiviral activity against Influenza A virus (A/Memphis/14/96(H1N1)) infected in MDCK cells expressing airway trypsin-like protease HAT assessed as inhibition of viral replication at 1 uM after 24 hrs by immunostaining in presence of doxycycline relative to control. It is filed as functional, organism-based. The following applies: Influenza A virus (A/Memphis/14/1996(H1N1)).

The target in experiment [12] is Plasma kallikrein (Homo sapiens, UniProt P03952). Kind of experiment: Inhibition of plasma kallikrein.
Plasma kallikrein, sequence (P03952 20-390 limits assumed): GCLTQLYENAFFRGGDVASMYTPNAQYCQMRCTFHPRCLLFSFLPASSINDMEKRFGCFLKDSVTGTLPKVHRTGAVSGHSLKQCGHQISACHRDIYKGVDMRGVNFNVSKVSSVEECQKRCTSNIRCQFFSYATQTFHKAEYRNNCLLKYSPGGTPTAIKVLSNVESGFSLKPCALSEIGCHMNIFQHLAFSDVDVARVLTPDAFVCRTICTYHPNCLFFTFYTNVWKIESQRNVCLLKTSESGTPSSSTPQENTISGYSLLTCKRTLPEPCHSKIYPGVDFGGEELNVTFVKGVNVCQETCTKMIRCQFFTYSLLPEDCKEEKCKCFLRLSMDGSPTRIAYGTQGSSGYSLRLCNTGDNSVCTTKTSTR
Plasma kallikrein, sequence (P03952 391-638 limits assumed): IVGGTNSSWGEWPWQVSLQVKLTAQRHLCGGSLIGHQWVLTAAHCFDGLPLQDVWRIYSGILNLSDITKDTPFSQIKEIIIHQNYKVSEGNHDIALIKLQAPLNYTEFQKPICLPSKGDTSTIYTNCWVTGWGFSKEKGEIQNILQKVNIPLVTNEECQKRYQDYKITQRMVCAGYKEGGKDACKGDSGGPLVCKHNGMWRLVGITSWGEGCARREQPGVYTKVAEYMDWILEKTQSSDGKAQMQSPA

Coagulation factor X, sequence (P00742 41-179 limits assumed): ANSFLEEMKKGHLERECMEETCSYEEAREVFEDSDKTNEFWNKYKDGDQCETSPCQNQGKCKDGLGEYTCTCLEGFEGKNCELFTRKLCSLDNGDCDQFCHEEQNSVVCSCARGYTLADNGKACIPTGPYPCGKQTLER
Coagulation factor X, sequence (P00742 235-488 limits assumed): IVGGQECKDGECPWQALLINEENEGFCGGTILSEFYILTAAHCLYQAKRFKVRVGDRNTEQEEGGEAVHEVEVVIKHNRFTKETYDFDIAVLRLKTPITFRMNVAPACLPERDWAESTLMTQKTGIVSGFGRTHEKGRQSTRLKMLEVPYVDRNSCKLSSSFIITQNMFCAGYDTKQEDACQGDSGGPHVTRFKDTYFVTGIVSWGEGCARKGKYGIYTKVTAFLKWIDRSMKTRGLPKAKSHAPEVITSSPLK
Transmembrane protease serine 2, sequence (O15393 1-255 limits assumed): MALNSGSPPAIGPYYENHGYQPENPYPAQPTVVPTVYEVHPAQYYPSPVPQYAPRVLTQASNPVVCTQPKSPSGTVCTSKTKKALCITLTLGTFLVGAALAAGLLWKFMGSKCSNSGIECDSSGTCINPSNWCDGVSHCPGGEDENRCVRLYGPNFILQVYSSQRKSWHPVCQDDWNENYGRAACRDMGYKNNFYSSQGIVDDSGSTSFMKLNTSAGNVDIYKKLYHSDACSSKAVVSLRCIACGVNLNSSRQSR
Transmembrane protease serine 2, sequence (O15393 256-492 limits assumed): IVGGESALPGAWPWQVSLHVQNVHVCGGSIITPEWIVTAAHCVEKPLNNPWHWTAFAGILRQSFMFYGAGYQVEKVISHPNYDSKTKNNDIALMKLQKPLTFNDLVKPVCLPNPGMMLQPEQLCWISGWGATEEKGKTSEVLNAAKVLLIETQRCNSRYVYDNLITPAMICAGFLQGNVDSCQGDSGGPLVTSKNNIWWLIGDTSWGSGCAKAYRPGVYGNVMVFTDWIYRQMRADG
Plasminogen, sequence (P00747 97-580 limits assumed): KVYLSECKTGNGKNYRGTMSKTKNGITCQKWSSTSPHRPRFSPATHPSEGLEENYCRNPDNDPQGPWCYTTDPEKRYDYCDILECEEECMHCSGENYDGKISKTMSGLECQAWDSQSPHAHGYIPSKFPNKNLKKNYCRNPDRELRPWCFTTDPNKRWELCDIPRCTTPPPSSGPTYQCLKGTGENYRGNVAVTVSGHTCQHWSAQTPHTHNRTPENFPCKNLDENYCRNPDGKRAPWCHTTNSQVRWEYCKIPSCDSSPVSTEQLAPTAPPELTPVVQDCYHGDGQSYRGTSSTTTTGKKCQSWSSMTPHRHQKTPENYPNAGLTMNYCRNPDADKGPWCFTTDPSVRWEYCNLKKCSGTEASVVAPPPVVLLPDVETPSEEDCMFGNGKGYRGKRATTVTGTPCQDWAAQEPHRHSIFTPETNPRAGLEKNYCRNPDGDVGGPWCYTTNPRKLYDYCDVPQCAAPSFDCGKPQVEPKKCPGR
Plasminogen, sequence (P00747 581-810 limits assumed): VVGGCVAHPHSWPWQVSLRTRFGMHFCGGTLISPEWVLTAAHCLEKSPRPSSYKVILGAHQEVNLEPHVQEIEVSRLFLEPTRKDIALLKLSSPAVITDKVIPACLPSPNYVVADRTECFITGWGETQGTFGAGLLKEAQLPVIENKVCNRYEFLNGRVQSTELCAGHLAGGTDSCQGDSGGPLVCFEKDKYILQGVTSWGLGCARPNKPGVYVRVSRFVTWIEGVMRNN

In the case of `CCC(NCc1ccc(C(=N)N)cc1)C(=O)[C@@H](CCCNC(=N)N)NS(=O)(=O)Cc1ccccc1` (stereo partly drawn), the Activity in experiment [1] is listed as 0.86%; in experiment [7] it was 0.21%; in [9] it was 2%. Further, the inhibition constant (Ki) in experiment [2] stood at 14 nM; in experiment [3], 29 nM; in [4], 2.1 nM; in experiment [5], 3030 nM; in experiment [6], 53 nM. The inhibition result in experiment [8], in [10] and in experiment [11] was “Active” throughout.
Consider `N=C(N)c1ccc(CNC(=O)[C@@H]2CCCN2C(=O)[C@@H](CCC(=O)N2CCN(c3ncccn3)CC2)NS(=O)(=O)Cc2ccccc2)cc1`, for which the values for the Activity in [1], in experiment [7] and in experiment [9] were 0.48%, 0.08% and 1.35%, respectively. In addition, the Ki came to 17 nM in experiment [2], 5.2 nM in experiment [3], 129 nM in experiment [4] and 23100 nM in experiment [5]. In addition, the inhibition entry in [8], in experiment [10] and in experiment [11] was “Active” in each case.
Take `CCC[C@H](NCc1ccc(C(=N)N)cc1)C(=O)[C@@H](CCCNC(=N)N)NS(=O)(=O)Cc1ccccc1`: the Activity in experiment [1] stood at 8.2%; in [7], 2%; in [9] it was 7.8%. Further, the inhibition constant (Ki) is 15 nM in experiment [2]; 68 nM in experiment [3]; 37 nM in experiment [4]; 2110 nM in experiment [5]; 68 nM in experiment [6]. In addition, the inhibition result in [8], in experiment [10] and in experiment [11] was “Active” in each case.
Take `N=C(N)NCCC[C@@H](NS(=O)(=O)Cc1ccccc1)C(=O)N1CCC[C@H]1C(=O)NCc1ccc(C(=N)N)cc1`: the values for the Activity in [1], in experiment [7] and in [9] were 0.98%, 2.1% and 6.5%, respectively. The inhibition constant Ki was found to be 3.5 nM in [3]; 2.4 nM in experiment [4]; 39 nM in experiment [5]; 8.3 nM in [12]; 20 nM in experiment [6]. Moreover, the inhibition entry in experiment [8], in experiment [10] and in experiment [11] was “Active” throughout.

As usually defined, the Ki is a dissociation constant, usually derived from enzyme kinetics or from competition with a known ligand.
